Assay results reported in ChEMBL document CHEMBL4431353, “Optimization of a Series of Bivalent Triazolopyridazine Based Bromodomain and Extraterminal Inhibitors: The Discovery of (3R)-4-[2-[4-[1-(3-Methoxy-[1,2,4]triazolo[4,3-b]pyridazin-6-yl)-4-piperidyl]phenoxy]ethyl]-1,3-dimethyl-piperazin-2-one (AZD5153)” (J Med Chem, 2016).
Values after ≈ are worked out from the molar mass of the structure shown.

Key:
[1] = biological target: Transcription initiation factor TFIID subunit 1 (Homo sapiens, UniProt P21675); assay: Inhibition of human TAF1 bromodomain 2 expressed in bacterial expression system
MV4-11 = assay: Antitumor activity against human MV4-11 cells xenografted in SCID mouse assessed as tumor growth inhibition at 10 mg/kg, po administered daily through oral gavage for 14 days measured twice per week during compound dosing relative to control; assay type: functional; details: MV4-11, po, 336 h, read-out: TGI
[2] = Thermodynamic solubility of compound in pH 7.4 solution; assay type: physicochemical; details: buffer, read-out: Therm_solubility
[3] = biological target: Transcription initiation factor TFIID subunit 1-like (Homo sapiens, UniProt Q8IZX4); assay: Inhibition of human TAF1L bromodomain 2 expressed in bacterial expression system
[4] = biological target: Bromodomain-containing protein 4 (Homo sapiens, UniProt O60885, N433A)
[5] = biological target: T1, Bromodomain testis-specific protein (Homo sapiens, UniProt Q58F21); assay: Inhibition of human BRDT bromodomain 2 expressed in bacterial expression system
[6] = Toxicity in SCID mouse xenografted with human MV4-11 cells assessed as body weight loss at 10 mg/kg, po administered daily through oral gavage for 14 days relative to control; assay type: organism-based; details: in vivo, 336 h
[7] = Apparent permeability from apical to basolateral side in human Caco2 cells; assay type: ADME, cell-based; details: Caco-2
[8] = Unbound fraction in human plasma; assay type: ADME, cell-free
[9] = Oral bioavailability in rat; assay type: ADME, organism-based; details: in vivo
[10] = Intrinsic clearance in rat hepatocytes assessed per million cells; assay type: ADME, cell-based, Hepatocyte; details: read-out: CLH
[11] = Unbound fraction in rat plasma; assay type: ADME, cell-free
[12] = Lipophilicity, log D of compound at pH 7.4; assay type: physicochemical; details: buffer
[13] = biological target: T2, Bromodomain-containing protein 4 (Homo sapiens, UniProt O60885); assay: Inhibition of BRD4 in human MM1S cells assessed as down regulation of c-Myc incubated for 16 hrs by flow cytometry; assay type: cell-based
[14] = Intrinsic clearance in human hepatocytes assessed per million cells; assay type: ADME, cell-based, Hepatocyte; details: read-out: CLH
[15] = Intrinsic clearance in dog hepatocytes assessed per million cells; assay type: ADME, cell-based, Canis lupus familiaris, Hepatocyte; details: read-out: CLH
[16] = biological target: T3, Bromodomain-containing protein 2 (Homo sapiens, UniProt P25440); assay: Inhibition of human BRD2 bromodomain 2 expressed in bacterial expression system
[17] = Oral bioavailability in dog; assay type: ADME, organism-based, Canis lupus familiaris; details: in vivo
[18] = Volume of distribution at steady state in dog; assay type: ADME, Canis lupus familiaris; details: in vivo, read-out: Vdss
[19] = biological target: T4, Bromodomain-containing protein 3 (Homo sapiens, UniProt Q15059); assay: Inhibition of human BRD3 bromodomain 2 expressed in bacterial expression system
[20] = Plasma clearance in rat; assay type: ADME
CREB-binding protein = CREB-binding protein (Homo sapiens, UniProt Q92793); assay: Inhibition of human CREBBP expressed in bacterial expression system
[21] = biological target: T4, Bromodomain-containing protein 3; assay: Inhibition of human BRD3 bromodomain 1 expressed in bacterial expression system
[22] = Plasma clearance in dog; assay type: ADME, Canis lupus familiaris
[23] = biological target: Bromodomain-containing protein 4 (Homo sapiens, UniProt O60885, N140A)
[24] = biological target: T2, Bromodomain-containing protein 4; assay: Inhibition of human BRD4 bromodomain 2 expressed in bacterial expression system
[25] = biological target: Histone acetyltransferase p300 (Homo sapiens, UniProt Q09472); assay: Inhibition of human EP300 expressed in bacterial expression system
[26] = Unbound fraction in dog plasma; assay type: ADME, cell-free, Canis lupus familiaris
[27] = biological target: T2, Bromodomain-containing protein 4; assay: Inhibition of BRD4 in human LNCAP cells assessed as down regulation of nuclear AR level by immunofluorescence assay; assay type: cell-based
Mus musculus = assay: In vivo inhibition of BRD4 in SCID mouse xenografted with human MV4-11 cells assessed as free plasma concentration required to decrease c-Myc expression in tumor at 10 mg/kg, po administered as single dose measured after 8 hrs by qPCR method; assay type: functional
[28] = biological target: T3, Bromodomain-containing protein 2; assay: Inhibition of human BRD2 bromodomain 1 expressed in bacterial expression system
[29] = Metabolic stability in hepatic microsomes; assay type: ADME, Liver, Microsome
[30] = biological target: T2, Bromodomain-containing protein 4; assay: Inhibition of BRD4 in human MCF7 cells assessed as down regulation of ERalpha after 18 to 24 hrs by Hoechst staining based cellomics arrayscan analysis; assay type: cell-based
[31] = biological target: T1, Bromodomain testis-specific protein; assay: Inhibition of human BRDT bromodomain 1 expressed in bacterial expression system
[32] = biological target: T2, Bromodomain-containing protein 4; assay: Displacement of Alexa647-labeled JQ1 derivative from wild type BRD4 tandem domain (44 to 460 residues) (unknown origin) incubated for 1 hr by fluorescence polarization assay
[33] = biological target: T5, Bromodomain-containing protein 9 (Homo sapiens, UniProt Q9H8M2); assay: Inhibition of human BRD9 expressed in bacterial expression system
T5 sequence (Q9H8M2 whole entry): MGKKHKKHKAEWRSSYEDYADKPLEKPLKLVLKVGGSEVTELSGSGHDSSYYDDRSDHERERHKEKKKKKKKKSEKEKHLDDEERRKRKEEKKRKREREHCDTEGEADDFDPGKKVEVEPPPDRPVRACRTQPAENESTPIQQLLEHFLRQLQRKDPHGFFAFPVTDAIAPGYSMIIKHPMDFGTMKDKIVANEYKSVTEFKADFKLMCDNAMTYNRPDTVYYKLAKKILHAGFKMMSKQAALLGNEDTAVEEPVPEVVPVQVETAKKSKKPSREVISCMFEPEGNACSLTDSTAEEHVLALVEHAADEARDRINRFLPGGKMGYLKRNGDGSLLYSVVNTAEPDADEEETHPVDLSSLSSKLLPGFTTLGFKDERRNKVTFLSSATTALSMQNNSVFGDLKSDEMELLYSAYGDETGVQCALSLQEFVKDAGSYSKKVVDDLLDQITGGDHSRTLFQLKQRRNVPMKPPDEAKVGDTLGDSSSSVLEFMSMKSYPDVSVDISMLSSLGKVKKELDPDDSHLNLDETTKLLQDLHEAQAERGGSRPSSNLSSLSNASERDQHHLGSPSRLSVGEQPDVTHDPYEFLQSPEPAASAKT

MM1.S = assay: Growth inhibition of human MM1S cells after 72 hrs by alamar blue assay; assay type: functional
[34] = Volume of distribution at steady state in rat; assay type: ADME; details: in vivo, read-out: Vdss
[35] = biological target: T2, Bromodomain-containing protein 4; assay: Inhibition of human BRD4 bromodomain 1 expressed in bacterial expression system

T4 sequence (Q15059 whole entry): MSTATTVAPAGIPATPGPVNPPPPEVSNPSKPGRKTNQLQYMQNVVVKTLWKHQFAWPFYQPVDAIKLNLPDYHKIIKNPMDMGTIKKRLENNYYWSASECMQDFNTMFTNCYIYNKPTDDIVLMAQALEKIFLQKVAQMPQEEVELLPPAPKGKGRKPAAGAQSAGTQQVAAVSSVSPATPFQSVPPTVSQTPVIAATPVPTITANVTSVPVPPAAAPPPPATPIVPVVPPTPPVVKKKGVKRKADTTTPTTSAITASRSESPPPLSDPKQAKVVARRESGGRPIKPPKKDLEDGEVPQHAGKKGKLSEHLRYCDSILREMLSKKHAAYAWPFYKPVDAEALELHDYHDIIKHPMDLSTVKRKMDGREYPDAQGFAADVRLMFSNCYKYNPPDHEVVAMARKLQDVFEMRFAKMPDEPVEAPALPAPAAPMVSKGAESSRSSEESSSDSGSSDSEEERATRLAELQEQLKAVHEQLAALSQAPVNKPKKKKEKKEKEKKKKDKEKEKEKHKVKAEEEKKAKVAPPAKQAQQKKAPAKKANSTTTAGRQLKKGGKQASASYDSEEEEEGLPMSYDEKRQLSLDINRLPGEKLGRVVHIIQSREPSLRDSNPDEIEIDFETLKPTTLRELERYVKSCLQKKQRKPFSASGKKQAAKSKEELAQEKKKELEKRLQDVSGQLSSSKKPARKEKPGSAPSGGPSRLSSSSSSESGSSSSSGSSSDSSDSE
T3 sequence (P25440 whole entry): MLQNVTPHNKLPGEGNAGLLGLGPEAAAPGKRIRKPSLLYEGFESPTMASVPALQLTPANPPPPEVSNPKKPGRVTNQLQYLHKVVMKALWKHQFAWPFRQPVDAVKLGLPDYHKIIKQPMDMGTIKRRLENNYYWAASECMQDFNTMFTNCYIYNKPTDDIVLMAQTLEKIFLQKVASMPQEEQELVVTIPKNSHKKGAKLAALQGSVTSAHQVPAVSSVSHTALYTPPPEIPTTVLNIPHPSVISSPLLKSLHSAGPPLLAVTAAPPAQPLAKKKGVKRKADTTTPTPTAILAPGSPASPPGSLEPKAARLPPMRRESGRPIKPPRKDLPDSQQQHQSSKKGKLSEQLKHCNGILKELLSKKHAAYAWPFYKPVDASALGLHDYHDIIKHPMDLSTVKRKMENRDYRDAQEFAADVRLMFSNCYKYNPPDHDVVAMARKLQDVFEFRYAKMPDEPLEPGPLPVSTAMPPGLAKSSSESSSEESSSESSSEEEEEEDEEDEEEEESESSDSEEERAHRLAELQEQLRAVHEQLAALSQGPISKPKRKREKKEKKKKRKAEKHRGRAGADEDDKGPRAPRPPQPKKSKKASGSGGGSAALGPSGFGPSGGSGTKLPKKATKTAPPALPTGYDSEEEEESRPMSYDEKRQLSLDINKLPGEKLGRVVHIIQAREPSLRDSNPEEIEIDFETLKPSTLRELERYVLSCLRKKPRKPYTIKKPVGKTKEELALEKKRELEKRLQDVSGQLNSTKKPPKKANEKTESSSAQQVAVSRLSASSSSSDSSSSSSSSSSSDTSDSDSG
Sequence of CREB-binding protein (Q92793 whole entry): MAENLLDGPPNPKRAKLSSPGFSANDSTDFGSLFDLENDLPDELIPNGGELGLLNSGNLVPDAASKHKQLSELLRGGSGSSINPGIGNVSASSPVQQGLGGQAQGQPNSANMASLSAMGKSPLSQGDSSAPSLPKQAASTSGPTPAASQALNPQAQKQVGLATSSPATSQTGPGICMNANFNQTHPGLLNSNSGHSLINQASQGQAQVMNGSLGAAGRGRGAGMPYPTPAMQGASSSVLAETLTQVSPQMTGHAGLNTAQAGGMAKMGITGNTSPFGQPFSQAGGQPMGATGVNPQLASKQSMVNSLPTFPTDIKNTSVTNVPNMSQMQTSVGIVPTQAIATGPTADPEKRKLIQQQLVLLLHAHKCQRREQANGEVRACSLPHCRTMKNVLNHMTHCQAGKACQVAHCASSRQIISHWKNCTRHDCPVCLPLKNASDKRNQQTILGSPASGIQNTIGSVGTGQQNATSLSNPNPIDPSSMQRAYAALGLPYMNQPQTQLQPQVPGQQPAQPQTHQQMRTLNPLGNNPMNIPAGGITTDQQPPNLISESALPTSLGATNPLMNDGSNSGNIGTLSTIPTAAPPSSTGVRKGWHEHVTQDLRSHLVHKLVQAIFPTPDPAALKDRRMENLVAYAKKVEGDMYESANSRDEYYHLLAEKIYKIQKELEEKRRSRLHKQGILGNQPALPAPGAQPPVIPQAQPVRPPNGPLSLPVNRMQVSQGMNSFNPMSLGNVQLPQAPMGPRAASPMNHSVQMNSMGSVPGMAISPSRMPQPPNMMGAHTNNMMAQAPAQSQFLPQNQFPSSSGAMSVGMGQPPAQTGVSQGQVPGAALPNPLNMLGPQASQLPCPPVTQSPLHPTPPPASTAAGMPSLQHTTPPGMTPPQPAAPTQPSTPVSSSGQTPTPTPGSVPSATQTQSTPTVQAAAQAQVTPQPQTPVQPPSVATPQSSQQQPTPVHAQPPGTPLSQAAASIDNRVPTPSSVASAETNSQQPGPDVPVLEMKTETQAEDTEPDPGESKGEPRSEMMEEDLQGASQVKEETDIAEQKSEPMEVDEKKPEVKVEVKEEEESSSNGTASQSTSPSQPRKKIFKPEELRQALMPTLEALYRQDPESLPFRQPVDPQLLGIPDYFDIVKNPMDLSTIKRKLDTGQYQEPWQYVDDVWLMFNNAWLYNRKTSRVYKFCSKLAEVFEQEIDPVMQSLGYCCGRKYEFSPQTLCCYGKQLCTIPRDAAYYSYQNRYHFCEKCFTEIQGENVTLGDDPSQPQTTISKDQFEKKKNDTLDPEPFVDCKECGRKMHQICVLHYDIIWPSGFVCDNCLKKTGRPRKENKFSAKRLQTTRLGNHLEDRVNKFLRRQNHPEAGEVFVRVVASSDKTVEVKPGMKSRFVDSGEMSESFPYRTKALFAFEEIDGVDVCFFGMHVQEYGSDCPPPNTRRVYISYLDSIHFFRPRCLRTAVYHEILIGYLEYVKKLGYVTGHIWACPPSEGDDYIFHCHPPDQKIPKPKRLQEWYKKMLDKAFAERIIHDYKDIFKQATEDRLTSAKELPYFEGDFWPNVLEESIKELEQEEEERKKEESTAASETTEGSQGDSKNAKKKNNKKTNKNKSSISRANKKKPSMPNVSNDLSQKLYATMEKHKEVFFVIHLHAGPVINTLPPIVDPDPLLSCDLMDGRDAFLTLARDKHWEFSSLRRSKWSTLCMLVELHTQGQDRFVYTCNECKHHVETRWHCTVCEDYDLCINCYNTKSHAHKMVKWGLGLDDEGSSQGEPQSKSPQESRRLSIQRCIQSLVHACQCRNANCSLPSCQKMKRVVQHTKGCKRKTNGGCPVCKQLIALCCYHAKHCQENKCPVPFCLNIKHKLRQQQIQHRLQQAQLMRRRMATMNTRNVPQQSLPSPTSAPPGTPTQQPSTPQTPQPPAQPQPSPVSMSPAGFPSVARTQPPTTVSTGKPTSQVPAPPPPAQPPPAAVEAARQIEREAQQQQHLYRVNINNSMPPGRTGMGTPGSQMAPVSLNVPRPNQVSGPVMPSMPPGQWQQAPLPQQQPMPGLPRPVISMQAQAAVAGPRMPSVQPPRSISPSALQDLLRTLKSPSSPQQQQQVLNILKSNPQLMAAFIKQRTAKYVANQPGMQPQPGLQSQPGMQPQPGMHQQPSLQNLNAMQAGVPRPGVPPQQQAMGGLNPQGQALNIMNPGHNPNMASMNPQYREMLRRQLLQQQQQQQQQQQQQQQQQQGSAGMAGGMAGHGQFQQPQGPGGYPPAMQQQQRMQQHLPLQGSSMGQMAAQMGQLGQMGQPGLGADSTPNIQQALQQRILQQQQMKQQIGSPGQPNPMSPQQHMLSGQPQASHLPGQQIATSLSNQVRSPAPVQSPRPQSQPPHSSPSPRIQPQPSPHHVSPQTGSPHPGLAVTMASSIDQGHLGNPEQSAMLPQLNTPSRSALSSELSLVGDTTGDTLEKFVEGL

Question: Which results are given for `COc1nnc2ccc(N3CCC(c4ccc(OCCN5CCN(C)C(=O)[C@H]5C)cc4)CC3)nn12` [AZD-5153]?
Answer: Ki [1]: 1260 nM; inhibition in vivo at 10 mg/kg (MV4-11): > 100%; solubility thermodynamic [2]: 1600 to 1650 µM (≈ 767 to 791 µg/mL); Ki [3]: 2510 nM; Ki [4]: 126 nM; Ki [5]: 501 nM; Activity [6]: 8%; Papp A→B [7]: 40 ×10⁻⁶ cm/s; fraction unbound [8]: 0.23; bioavailability [9]: 81%; hepatocyte CLint [10]: 5 µL/min/1e6 cells; fraction unbound [11]: 0.04; logD [12]: 2.3; IC50 [13]: 12.6 nM; hepatocyte CLint [14]: 3.5 to 4 µL/min/1e6 cells; hepatocyte CLint [15]: < 1 µL/min/1e6 cells; Ki [16]: 251 nM; bioavailability [17]: 55%; Vd [18]: 0.4 L/kg; Ki [19]: 398 nM; clearance [20]: 4 mL/min/kg; Ki (CREB-binding protein): 6310 nM; Ki [21]: 63.1 nM; clearance [22]: 6 mL/min/kg; Ki [23]: 158 nM; Ki [24]: 126 nM; Ki [25]: < 10000 nM; fraction unbound [26]: 0.24; IC50 [27]: 20 nM; Cp(f) (Mus musculus): <0.2 µM; Ki [28]: 100 nM; Stability [29]: Stable; IC50 [30]: 25.1 nM; Ki [31]: 100 nM; Ki [32]: 5.01 nM; Ki [33]: 2510 nM; GI50 (MM1.S): 5.01 nM; Vd [34]: 0.9 L/kg; Ki [35]: 50.1 nM
